In EP2050747A1, “Dimers of harmol or of its derivatives and uses thereof” (BioAlliance Pharma, priority 2007, dated 2009):

What was measured:
human tumor cell lines = settings: cited from earlier work
[1] = test system: malignant NIH 3T3 EF cells; assay: Wound healing assay (cell motility); type: cell-based; settings: NIH 3T3 EF cells, 5 µM
Experimental: Harmol dimers have been tested in a cell motility assay: the behaviour of tumoral cells treated by these dimers was compared with non-treated tumoral cells in a wound healing assay. Wound healing assay was performed to evaluate the effect of tested molecules on motility of malignant NIH 3T3 EF cells and melanoma cell line B16F10. About 100 000-200 000 cells were seeded in a 6-well culture plate and the tested molecule was added 24 hours later. Cells were grown for 3 days to confluence about 90-95% and small scratch-wounds (1 mm width) were made with a pipette tip. Cell debris were removed, then the cultures were incubated in complete medium for 10 h in the presence of the same concentration of the tested molecule. Then, the cells were fixed for 10 min in PBS containing 3.7% formaldehyde at 4°C.

[2] = test system: cyclin-dependent kinases (CDKs); settings: cited from earlier work
B16F10 tumor = assay: In vivo tumorigenicity assay, subcutaneous B16F10 tumor growth; set-up: species or system C57BU6 mice
Experimental: Female 6-8 week-old C57BU6 mice were provided by Harlan (Gannat, France).
Animals were housed in air-conditioned atmosphere, given food and water in standard conditions. One million B16F10 cells in 0.1 ml PBS were injected subcutaneously into the right flank of mice. Seven days after cells inoculation, it was possible to measure tumor volume (day 0). Thereafter, before drug administration, female C57BU6 mice were randomized to form 2 groups. […]
B16F10 tumor development was monitored for 2 weeks. The tumor size was estimated every fourth day by measuring the diameters of the tumors in two perpendicular dimensions using callipers. The volume of tumor (V) was calculated using the formula, V = 2W(U2)2 , where L and W were respectively the length and the width of tumor.
In vivo tumorigenicity assay was studied with harmine. […] In parallel, control mice were treated by one daily oral route administration of the vehicle.

monoamine oxydase = settings: cited from earlier work
NIH 3T3 EF = assay: Cloning assay, colony formation in semi solid medium (methylcellulose); type: cell-based; settings: in words
Experimental: (§1) Cells were embedded in complete culture medium supplemented with 0,8% methylcellulose (Methocel MC4000, Sigma), seeded in triplicate into 35-mm dishes (Greiner Bio-one Ref 627102, Dominique Dutscher) and incubated at 37 °C in a humidified 5% CO2 atmosphere.
(§2) The number of cells seeded was 1000 cells per dish. After one week (B16F10 cell line) to 3 weeks (NIH 3T3 EF cell line), macroscopic clones were counted.

NIH 3T3 EF cells = assay: Rescue of F-actin network, FITC-phalloidin fluorescence microscopy; type: cell-based; settings: compared with the concentrations used in harmol dimers test
Experimental: Malignant NIH 3T3 EF cells were seeded onto glass cover slips at a density of 2000 cells per cm^2. The next day, tested molecules were applied to NIH 3T3 EF cells at various non cytotoxic concentrations. Three days later, cells were fixed for 10 min in PBS containing 3.7 % formaldehyde at 4°C before examination with a fluorescence microscope. The formaldehyde solution was neutralized with 50 mM NH4Cl. Permeabilisation was carried out for 4 min with 0.4% Triton X-100 in PBS. Cells were incubated for 1 h at room temperature with blocking buffer (3% bovine serum albumin in PBS) and then for 1 h with FITC-phalloidin (Sigma) which stabilizes structures by inhibiting phosphate release from ADP-Pi-actin filaments and allows visualization of actin filaments by fluorescence microscopy. The cover slips were mounted on microscope slides using a solution of glycerol 50%, DABCO 2.5% in PBS as embedding medium.

F-actin = assay: Actin dynamics, fluorescence anisotropy assay in tumor cell cytosolic fraction; type: biochemical
Experimental: Actin dynamics have been quantified in tumor cell cytosolic fraction using the fluorescence anisotropy assay which gains access to rate constant of F-actin elongation (kobs) and steady state concentration of F-actin (Δ mA max).
All reactions were carried out at 22°C and fluorescence anisotropy signal was recovered at 520 nm with excitation at 490 nm in a Beacon 2000 (Panvera). Alexa 488 actin (Molecular Probes) was centrifuged at 35 000 rpm for 2 h at 4°C to sediment residual actin polymers in a Beckman L5-50B ultracentrifuge. […] 80% of the supernatant was withdrawn; the concentration was defined through fluorescence measurements (excitation at 490 nm and signal recovering at 520 nm). The ultracentrifuged actin concentration was calculated using the non ultracentrifuged Alexa 488 actin as a standard. The supernatant was aliquoted, frozen in liquid nitrogen and stored at -80°C.
Before experiment, an aliquot of ultracentrifuged Alexa 488 actin was diluted to a concentration of 1 mg/ml in G buffer (5 mM Tris pH 8.1, 2 mM CaCl2, 0.2 mM DTT, 0.2 mM ATP). 3 µl of diluted Alexa 488 actin was mixed in 168 µl of G buffer and actin monomers anisotropy was measured before the addition of 4 µl of polymerisation buffer (2.5 M KCI, 50 mM MgCl2, 25 mM ATP), 5 µl of G buffer in the presence or in the absence of the chemical molecule and 20 µl cellular extract of normal NIH 3T3 cells or malignant NIH 3T3 EF cells at 2 mg/ml. The final concentration of Alexa 488 actin was 4 nM. The ratio of unlabelled to labelled actin was about 140/4 nM. Measurements were made each 10 sec for 200 sec. Actin monomers anisotropy value was subtracted, yielding the anisotropy enhancement (Δ mA). The data were fitted with the equation Y= Ymax . [1- exp(- K.X)]. The curves start at zero and ascend to Ymax that corresponds to the steady state anisotropy value (Δ mA eq), with a rate constant K. Y is anisotropy values of which monomers anisotropy is substracted and X is the time (Assessment of cellular actin dynamics by measurement of fluorescence anisotropy. Anal Biochem. 2007 Aug 1;367(1):95-103. Epub 2007 Apr 5. Spitz et al.).

B16F10 = assay: Cloning assay, colony formation in semi solid medium (methylcellulose); type: cell-based, Murine
Experimental: as §1, §2

Compound: COc1ccc2c(c1)[nH]c1c(C)nccc12 [harmine, reference compound]
- cytotoxicity against human tumor cell lines (human tumor cell lines): strong cytotoxicity
- inhibition of migration compared with the harmol dimers [1]: lower inhibition of migration
- inhibition of cyclin-dependent kinases (CDKs) [2]: selective inhibitor
- tumoral growth inhibition (B16F10 tumor; daily per os 100 mg/kg (2 x 50 mg/kg) for 15 days): Any tumoral growth inhibition
- tumoral growth inhibition (B16F10 tumor; daily per os 200 mg/Kg (2 x 100 mg/kg) for 15 days): Any tumoral growth inhibition
- monoamine oxydase inhibition (monoamine oxydase): monoamine oxydase inhibitor
- concentration at which inhibition of NIH 3T3 EF colony formation was observed (NIH 3T3 EF): micromolar concentration
- modification in actin cytoskeleton network (NIH 3T3 EF cells): higher concentrations
- F actin elongation rate constant compared with NIH 3T3 cytosolic fraction (F-actin; NIH 3T3 EF cytosolic fraction, BA016FZ527 at 10 µM, harmine concentration not given): lower
- F actin steady state value (Δ mA max), effect in words (F-actin; added to assay medium, NIH 3T3 EF cytosolic fraction or lysate, versus untreated, harmol at 10 µM): increase
- F actin elongation rate constant (Kobs), effect in words (F-actin; added to assay medium, NIH 3T3 EF cytosolic fraction, versus untreated): increase
- concentration at which inhibition of B16F10 colony formation was observed (B16F10): about 1 µM
